Source: article PMC5578090, “Biological Evaluation of Uridine Derivatives of 2-Deoxy Sugars as Potential Antiviral Compounds against Influenza A Virus” (International Journal of Molecular Sciences, 2017)
Entries after “also recorded” stand apart in the source; their conditions may differ. Where two headings read alike, the source gives them in different places.

How the values were obtained:
[1] = test system: influenza virus A/ostrich/Denmark/725/96 (H5N2); assay: microbe, parasite or virus in culture; type: cell-based; conditions: for IC50: H5N2, MDCK
in vitro = conditions: dog
[2] = test system: influenza virus A/ostrich/Denmark/725/96 (H5N2); type: cell-based
influenza virus = conditions: previously reported; read-out: IC50, anti-influenza virus activity in vitro; cited from earlier work
[3] = test system: influenza virus A/ostrich/Denmark/725/96 (H5N2); type: cell-based; remark: listed apart in the source
[4] = test system: HA protein of pandemic human influenza A/H1N1 virus; type: cell-based
[5] = 72 h, read-out: IC50 (compound concentration required to inhibit virus plaque production by 50%)
[6] = read-out: p[IC50] = −log[IC50] (converted)

Q: Which IC50 [1, 5] does the source give for `CCC(CC)O[C@@H]1C=C(C(=O)O)C[C@H](N)[C@H]1NC(C)=O` [Oseltamivir carboxylate, reference compound] here?
A: ~0.15 µM

Q: What about the CC50 (in vitro) of the same compound?
A: > 100 µM

Q: With `CC(=O)O[C@H]1[C@H](C)O[C@H](OC[C@H]2O[C@@H](n3ccc(=O)[nH]c3=O)[C@@H]3OC(C)(C)O[C@@H]32)C[C@@H]1O[Si](C)(C)C(C)(C)C` [Compound 1] as the compound, how does the “SI (selectivity index, ratio of CC50 to IC50)” value [1] read?
A: 1.10

Q: And the IC50 [1, 5]?
A: 175 ± 8.22 µM

Q: And the IC50 [1, 6]?
A: 174 µM

Q: And the CC50 (in vitro)?
A: 193 µM

Q: What does the source list for `CC1(C)O[C@@H]2[C@H](O1)[C@@H](CO[C@@H]1C[C@@H](OCc3ccccc3)[C@H](OCc3ccccc3)[C@@H](CO[Si](C)(C)C(C)(C)C)O1)O[C@H]2n1ccc(=O)[nH]c1=O` [Compound 5]?
A: SI (selectivity index, ratio of CC50 to IC50) [1]: 1.56; IC50 [1, 5]: 96 ± 7.64 µM; IC50 [1, 6]: 97.7 µM; CC50 (in vitro): 150 µM

Q: What does the source list for `CC1(C)O[C@@H]2[C@H](O1)[C@@H](CO[C@@H]1C[C@@H](O)[C@H](O)[C@@H](CO)O1)O[C@H]2n1ccc(=O)[nH]c1=O` [Compound 7]?
A: SI (selectivity index, ratio of CC50 to IC50) [1]: 1.15; IC50 [1, 5]: 721 ± 23.2 µM; IC50 [1, 6]: 724 µM; Cytotoxicity (in words) (MDCK cells): low; CC50 (in vitro): 828 µM

Q: For `CC1(C)O[C@@H]2[C@H](O1)[C@@H](CO[C@@H]1C[C@@H](OCc3ccccc3)[C@H](OCc3ccccc3)[C@@H](COCc3ccccc3)O1)O[C@H]2n1ccc(=O)[nH]c1=O` [Compound 3], which “SI (selectivity index, ratio of CC50 to IC50)” value [1] is on record?
A: 4.07

Q: What about the IC50 [1, 5] of the same compound?
A: 100 ± 9.84 µM

Q: And the IC50 [1, 6]?
A: 100 µM

Q: What about the “Reduction of virus-induced cytopathic effect (antiviral activity)” value (shortened to “Reduction”) [2] of the same compound?
A: significantly reduced the CPE

Q: What about the CC50 (in vitro) of the same compound?
A: 407 µM

Q: What does the source list for `CC1(C)O[C@@H]2[C@H](O1)[C@@H](CO[C@@H]1C[C@@H](O)[C@H](O)[C@@H](CO)O1)O[C@H]2n1ccc(=O)n(Cc2ccccc2)c1=O` [Compound 8]?
A: SI (selectivity index, ratio of CC50 to IC50) [1]: 1.93; IC50 [1, 5]: 346 ± 10.5 µM; IC50 [1, 6]: 347 µM; Cytotoxicity (in words) (MDCK cells): low; CC50 (in vitro): 669 µM

Q: Which results are given for `CC1(C)O[C@@H]2[C@H](O1)[C@@H](CO[C@@H]1C[C@@H](OCc3ccccc3)[C@H](OCc3ccccc3)[C@@H](CO[Si](C)(C)C(C)(C)C)O1)O[C@H]2n1ccc(=O)n(C(=O)c2ccccc2)c1=O` [IW3, reference compound]?
A: SI (selectivity index, ratio of CC50 to IC50) [1]: 8.89; IC50 [1, 5]: 72 ± 5.2 µM; IC50 (influenza virus): 72 µM; CC50 (in vitro): 640 µM

Q: Which “SI (selectivity index, ratio of CC50 to IC50)” value [1] does the source give for `CC1(C)O[C@@H]2[C@H](O1)[C@@H](CO[C@@H]1C[C@@H](OCc3ccccc3)[C@H](OCc3ccccc3)[C@@H](COCc3ccccc3)O1)O[C@H]2n1ccc(=O)n(C(=O)c2ccccc2)c1=O` [Compound 4] here?
A: 4.85

Q: And the IC50 [1, 5]?
A: 99 ± 5.23 µM

Q: And the IC50 [1, 6]?
A: 100 µM

Q: What about the “Reduction” value [2] of the same compound?
A: significantly reduced the CPE

Q: And the CC50 (in vitro)?
A: 480 µM

Q: With `CC(=O)OC[C@H]1OC(OC[C@H]2O[C@@H](n3ccc(=O)[nH]c3=O)[C@@H]3OC(C)(C)O[C@@H]32)C[C@@H](OC(C)=O)[C@@H]1OC(C)=O` (some centres unmarked) [Compound 6] as the compound, how does the “SI (selectivity index, ratio of CC50 to IC50)” value [1] read?
A: 1.08

Q: And the IC50 [1, 5]?
A: 575 ± 17.2 µM

Q: And the IC50 [1, 6]?
A: 575 µM

Q: What about the CC50 (in vitro) of the same compound?
A: 620 µM

Q: With `CC1(C)O[C@@H]2[C@H](O1)[C@@H](CO[C@@H]1C[C@@H](OCc3ccccc3)[C@H](OCc3ccccc3)[C@@H](CO)O1)O[C@H]2n1ccc(=O)n(C(=O)c2ccccc2)c1=O` [IW7, reference compound] as the compound, how does the “SI (selectivity index, ratio of CC50 to IC50)” value [1] read?
A: 1.95

Q: What about the IC50 [1, 5] of the same compound?
A: 63 ± 4.17 µM

Q: And the IC50 (influenza virus)?
A: 63 µM

Q: And the CC50 (in vitro)?
A: 123 µM

Q: Which “Average size and plaque number” value [1] does the source give for `CC(=O)O[C@H]1[C@H](C)O[C@H](OC[C@H]2O[C@@H](n3ccc(=O)n(C(=O)c4ccccc4)c3=O)[C@@H]3OC(C)(C)O[C@@H]32)C[C@@H]1O[Si](C)(C)C(C)(C)C` [Compound 2] here?
A: markedly reduced in a dose-dependent manner

Q: What about the “SI (selectivity index, ratio of CC50 to IC50)” value [1] of the same compound?
A: 5.27

Q: What about the IC50 [1, 5] of the same compound?
A: 82 ± 6.81 µM

Q: And the IC50 [1, 6]?
A: 81.3 µM

Q: What about the “Reduction” value [2] of the same compound?
A: significantly reduced the CPE

Q: And the “Inhibition of virus propagation depending on time of addition” value [3]?
A: inhibited the propagation of influenza virus only when it is added to the cells after viral infection

Q: What about the “Mature form of HA protein” value [4] of the same compound?
A: not detected

Q: And the “Yield of HA protein in infected cells” value [4]?
A: reduced the formation of HA glycoprotein in a dose-dependent manner; also recorded: reduced by compound 2 in a dose-dependent manner; also recorded: dose-dependent decrease of HA glycoprotein production

Q: What about the CC50 (in vitro) of the same compound?
A: 432 µM

Q: For `O=c1ccn([C@@H]2O[C@H](CO[C@@H]3C[C@@H](O)[C@H](O)[C@@H](CO)O3)[C@@H](O)[C@H]2O)c(=O)[nH]1` [Compound 9], which “SI (selectivity index, ratio of CC50 to IC50)” value [1] is on record?
A: 1.95

Q: And the IC50 [1, 5]?
A: 410 ± 11.2 µM

Q: What about the IC50 [1, 6] of the same compound?
A: 407 µM

Q: And the “Cytotoxicity (in words)” value (MDCK cells)?
A: low

Q: What about the CC50 (in vitro) of the same compound?
A: 800 µM
